Source: US10717730B1, “Dihydroisoquinoline compound” (SUZHOU ARK BIOPHARMACEUTICAL CO., LTD., priority 2017, dated 2020)
Where a name gives a salt, the structure may show the parent alone.

Test system: HBsAg
Test: HBsAg assay (secreted HBsAg by CLIA in HepG2.2.15 cells)
Assay type: cell-based, hepatitis B virus (HBV)
Conditions: Hepatitis B virus, HepG2.2.15, 96 h
Procedure: HepG2.2.15 cells (Sells et al, Proc Natl Acad Sci USA. 1987 February; 84(4):1005-9), a constitutively HBV-expressing cell line, were cultured in DMEM medium supplemented with 10% FBS and 400 μg/mL G418, and maintained in 5% CO2 at 37° C.
HepG2.2.15 cells were seeded into 96-well plates at 3×10^4 cells/well. The next day, the cells were treated with a five-fold serial dilution series of the compound in DMSO. The final DMSO concentration in all wells was 0.5% and 0.5% DMSO was used as no drug control. After four days of incubation with compounds, the supernatants were harvested and measured for HBsAg concentration
The HBsAg chemiluminescence immunoassay (CLIA) kit was used to measure the levels of secreted HBsAg. Specifically, 50 μL of culture supernatant was transferred to the CLIA assay plate and 50 μL of enzyme conjugate reagent was added into each well. The plates were sealed and incubated for 1 hour at room temperature. The supernatant-enzyme-mixture was discarded and wells were washed for 6 times. The residual liquid was removed by plating on tissue paper. 25 μL of substrate A and B were added into each well. Luminance was measured using a spectrometer (Tecan Infinite® F200) after 10 minutes incubation. IC50 value was extrapolated based the dose-response curves generated from the data.

Work on `COc1cc2c(cc1-c1cnc(N3CCC3)cc1C)CC(C(C)(C)C)n1cc(C(=O)O)c(=O)cc1-2` (stereo not drawn) [Example 53, 9-(6-(azetidin-1-yl)-4-methylpyridin-3-yl)-6-(tert-butyl)-10-methoxy-2-oxo-6,7-dihydro-2H-pyrido[2,1-a]isoquinoline-3-carboxylic acid] yielded an IC50 of 1400 nM.
`COc1cc2c(cc1-c1ccc(N(C)C)nc1)CC(C(C)(C)C)n1cc(C(=O)O)c(=O)cc1-2` (stereo not drawn) [Example 43, 6-(tert-butyl)-9-(6-(dimethylamino)pyridin-3-yl)-10-methoxy-2-oxo-6,7-dihydro-2H-pyrido[2,1-a]isoquinoline-3-carboxylic acid] gave an IC50 of 1 nM.
In the case of `COc1cc2c(cc1-c1ccc(NCC3CC3)nc1)CC(C(C)(C)C)n1cc(C(=O)O)c(=O)cc1-2` (stereo not drawn) [Example 52, 6-(tert-butyl)-9-(6-(cyclopropylmethylamino)pyridin-3-yl)-10-methoxy-2-oxo-6,7-dihydro-2H-pyrido[2,1-a]isoquinoline-3-carboxylic acid], the IC50 is reported as 12 nM.
For `COc1cc2c(cc1-c1cnn(CCCO)c1)CC(C(C)(C)C)n1cc(C(=O)O)c(=O)cc1-2` (stereo not drawn) [Example 9, 6-(tert-butyl)-9-(1-(3-hydroxypropyl)-1H-pyrazol-4-yl)-10-methoxy-2-oxo-6,7-dihydro-2H-pyrido[2,1-a]isoquinoline-3-carboxylic acid], the IC50 was 290 nM.
In the case of `COc1cc2c(cc1-c1cnc(NC3CCC3)nc1)CC(C(C)(C)C)n1cc(C(=O)O)c(=O)cc1-2` (stereo not drawn) [Example 76, 6-(tert-butyl)-9-(2-(cyclobutylamino)pyrimidin-5-yl)-10-methoxy-2-oxo-6,7-dihydro-2H-pyrido[2,1-a]isoquinoline-3-carboxylic acid], the IC50 is reported as 0.4 nM.
`COc1cc2c(cc1-c1cnc(Cl)nc1)CC(C(C)(C)C)n1cc(C(=O)O)c(=O)cc1-2` (stereo not drawn) [Example 68, 6-(tert-butyl)-9-(2-chloropyrimidin-5-yl)-10-methoxy-2-oxo-6,7-dihydro-2H-pyrido[2,1-a]isoquinoline-3-carboxylic acid] gave an IC50 of 0.6 nM.
`COc1cc2c(cc1-c1cnn(C(C)(C)C(=O)O)c1)CC(C(C)(C)C)n1cc(C(=O)O)c(=O)cc1-2` (stereo not drawn) [Example 27, 6-(tert-butyl)-9-(1-(2-carboxyprop-2-yl)-1H-pyrazol-4-yl)-10-methoxy-2-oxo-6,7-dihydro-2H-pyrido[2,1-a]isoquinoline-3-carboxylic acid] showed an IC50 of 4 nM.
`COc1cc2c(cc1-c1cnc(F)cc1C)CC(C(C)(C)C)n1cc(C(=O)O)c(=O)cc1-2` (stereo not drawn) [Example 48, 6-(tert-butyl)-9-(6-fluoro-4-methylpyridin-3-yl)-10-methoxy-2-oxo-6,7-dihydro-2H-pyrido[2,1-a]isoquinoline-3-carboxylic acid] was tested, and the IC50 was 68 nM.
Compound `COc1cc2c(cc1-c1cnn(CC(C)O)c1)CC(C(C)(C)C)n1cc(C(=O)O)c(=O)cc1-2` (stereo not drawn) [Example 12, 6-(tert-butyl)-9-(1-(2-hydroxypropyl)-1H-pyrazol-4-yl)-10-methoxy-2-oxo-6,7-dihydro-2H-pyrido[2,1-a]isoquinoline-3-carboxylic acid] has an IC50 of 2 nM.
`COCCn1cc(-c2cc3c(cc2OC)-c2cc(=O)c(C(=O)O)cn2C(C(C)C)C3)cn1` (stereo not drawn) [Example 3, 6-isopropyl-10-methoxy-9-(1-(2-methoxyethyl)-1H-pyrazol-4-yl)-2-oxo-6,7-dihydro-2H-pyrido[2,1-a]isoquinoline-3-carboxylic acid] gave an IC50 of 18 nM.
For `COc1cc2c(cc1-c1cc(C)nn1C)CC(C(C)(C)C)n1cc(C(=O)O)c(=O)cc1-2` (stereo not drawn) [Example 15, 6-(tert-butyl)-9-(1,3-dimethyl-1H-pyrazol-5-yl)-10-methoxy-2-oxo-6,7-dihydro-2H-pyrido[2,1-a]isoquinoline-3-carboxylic acid], the IC50 was 4 nM.
With `COc1cc2c(cc1-c1ccc(N3CCOCC3)nc1)CC(C(C)(C)C)n1cc(C(=O)O)c(=O)cc1-2` (stereo not drawn) [Example 40, 6-(tert-butyl)-10-methoxy-9-(6-morpholinylpyridin-3-yl)-2-oxo-6,7-dihydro-2H-pyrido[2,1-a]isoquinoline-3-carboxylic acid] the IC50 was 6 nM.
For `COc1cc2c(cc1-c1cn[nH]c1)CC(C(C)(C)C)n1cc(C(=O)O)c(=O)cc1-2` (stereo not drawn) [Example 8, 6-(tert-butyl)-10-methoxy-2-oxo-9-(1H-pyrazol-4-yl)-6,7-dihydro-2H-pyrido[2,1-a]isoquinoline-3-carboxylic acid], the IC50 was 9 nM.
Compound `CCCn1cc(-c2cc3c(cc2OC)-c2cc(=O)c(C(=O)O)cn2C(C(C)C)C3)cn1` (stereo not drawn) [Example 6, 6-isopropyl-10-methoxy-2-oxo-9-(1-propyl-1H-pyrazol-4-yl)-6,7-dihydro-2H-pyrido[2,1-a]isoquinoline-3-carboxylic acid] has an IC50 of 6 nM.
With `COc1cc2c(cc1-c1nc[nH]n1)CC(C(C)(C)C)n1cc(C(=O)O)c(=O)cc1-2` (stereo not drawn) [Example 29, 6-(tert-butyl)-10-methoxy-2-oxo-9-(1H-1,2,4-triazol-3-yl)-6,7-dihydro-2H-pyrido[2,1-a]isoquinoline-3-carboxylic acid] the IC50 was 12 nM.
`COc1ncc(-c2cc3c(cc2OC)-c2cc(=O)c(C(=O)O)cn2C(C(C)(C)C)C3)cn1` (stereo not drawn) [Example 66, 6-(tert-butyl)-10-methoxy-9-(2-methoxypyrimidin-5-yl)-2-oxo-6,7-dihydro-2H-pyrido[2,1-a]isoquinoline-3-carboxylic acid] gave an IC50 of 0.8 nM.
With `COc1cc2c(cc1-c1ccc(NC3CCC3)nc1)CC(C(C)(C)C)n1cc(C(=O)O)c(=O)cc1-2` (stereo not drawn) [Example 56, 6-(tert-butyl)-9-(6-(cyclobutylamino)pyridin-3-yl)-10-methoxy-2-oxo-6,7-dihydro-2H-pyrido[2,1-a]isoquinoline-3-carboxylic acid] the IC50 was 1 nM.
`COc1cc2c(cc1-c1cnn(CCCO)c1)CC(C(C)C)n1cc(C(=O)O)c(=O)cc1-2` (stereo not drawn) [Example 4, 9-(1-(3-hydroxypropyl)-1H-pyrazol-4-yl)-6-isopropyl-10-methoxy-2-oxo-6,7-dihydro-2H-pyrido[2,1-a]isoquinoline-3-carboxxylic acid] gave an IC50 of 24 nM.
For `COc1cc2c(cc1-c1cnn(CC(F)(F)F)c1)CC(C(C)C)n1cc(C(=O)O)c(=O)cc1-2` (stereo not drawn) [Example 2, 6-isopropyl-10-methoxy-2-oxo-9-(1-(2,2,2-trifluoroethyl)-1H-pyrazol-4-yl)-6,7-dihydro-2H-pyrido[2,1-a]isoquinoline-3-carboxylic acid], the IC50 was 8 nM.
In the case of `COc1cc2c(cc1-c1ccc(N3CCNCC3)nc1)CC(C(C)(C)C)n1cc(C(=O)O)c(=O)cc1-2` (stereo not drawn) [Example 45, 6-(tert-butyl)-10-methoxy-2-oxo-9-(6-(piperazin-1-yl)pyridin-3-yl)-6,7-dihydro-2H-pyrido[2,1-a]isoquinoline-3-carboxylic acid], the IC50 is reported as 14 nM.
For `COc1cc2c(cc1-c1cnn(C3CCNCC3)c1)CC(C(C)(C)C)n1cc(C(=O)O)c(=O)cc1-2` (stereo not drawn) [Example 17, 6-(tert-butyl)-10-methoxy-2-oxo-9-(1-(piperidin-4-yl)-1H-pyrazol-4-yl)-6,7-dihydro-2H-pyrido[2,1-a]isoquinoline-3-carboxylic acid hydrochloride], the IC50 was 25 nM.
In the case of `COc1cc2c(cc1-c1cnc(NCC(=O)O)nc1)CC(C(C)(C)C)n1cc(C(=O)O)c(=O)cc1-2` (stereo not drawn) [Example 78, 6-(tert-butyl)-9-(2-((carboxymethyl)amino)pyrimidin-5-yl)-10-methoxy-2-oxo-6,7-dihydro-2H-pyrido[2,1-a]isoquinoline-3-carboxylic acid], the IC50 is reported as 45 nM.
`COc1cc2c(cc1-c1cn[nH]c1)CC(C(C)C)n1cc(C(=O)O)c(=O)cc1-2` (stereo not drawn) [Example 1, 6-isopropyl-10-methoxy-2-oxo-9-(1H-pyrazol-4-yl)-6,7-dihydro-2H-pyrido[2,1-a]isoquinoline-3-carboxylic acid] was tested, and the IC50 was 14 nM.
Work on `COc1cc2c(cc1-c1ncn(CC(=O)O)n1)CC(C(C)(C)C)n1cc(C(=O)O)c(=O)cc1-2` (stereo not drawn) [Example 30, 6-(tert-butyl)-9-(1-(carboxymethyl)-1H-1,2,4-triazol-3-yl)-10-methoxy-2-oxo-6,7-dihydro-2H-pyrido[2,1-a]isoquinoline-3-carboxylic acid] yielded an IC50 of 13 nM.
For `COCCOc1ccc(-c2cc3c(cc2OC)-c2cc(=O)c(C(=O)O)cn2C(C(C)(C)C)C3)cn1` (stereo not drawn) [Example 42, 6-(tert-butyl)-10-methoxy-9-(6-(2-methoxyethoxy)pyridin-3-yl)-2-oxo-6,7-dihydro-2H-pyrido[2,1-a]isoquinoline-3-carboxylic acid], the IC50 was 2 nM.
In the case of `COc1cc2c(cc1-c1cnc(N(C)C)nc1)CC(C(C)(C)C)n1cc(C(=O)O)c(=O)cc1-2` (stereo not drawn) [Example 61, 6-(tert-butyl)-9-(2-(dimethylamino)pyrimidin-5-yl)-10-methoxy-2-oxo-6,7-dihydro-2H-pyrido[2,1-a]isoquinoline-3-carboxylic acid], the IC50 is reported as 4 nM.
`COc1cc2c(cc1-c1ccnn1C)CC(C(C)(C)C)n1cc(C(=O)O)c(=O)cc1-2` (stereo not drawn) [Example 13, 6-(tert-butyl)-10-methoxy-9-(1-methyl-1H-pyrazol-5-yl)-2-oxo-6,7-dihydro-2H-pyrido[2,1-a]isoquinoline-3-carboxylic acid] showed an IC50 of 18 nM.
